{
  "source": "patent US5547982A",
  "about": "“Anti-tumor platinum complexes” (priority 1995, dated 1996)",
  "tested_on": "Daudi tumor cell line",
  "assay": "Cytotoxicity testing against Daudi cells (killing of 50% of the Daudi cells)",
  "format": "cell-based",
  "details": "5E9 conjugate versus free agents, conjugate MSR=8.9, read-out: CC50 (concentration of platinum compound which killed 50% of the Daudi cells)",
  "data": [
    {"substance": "ammino[4-succinimidyl -(5-aminopentan-2-one) terephthalic hydrazone] tetrachloro platinum (IV) [AAtC]", "values": [
      {"measurement": "CC50", "value": 2.1, "unit": "µM"}
    ]}
  ]
}
